Entries after “also recorded” stand apart in the source; their conditions may differ.
What was measured:
HS-24 cells = test: Viability of HS-24 cells by trypan blue dye exclusion; format: cell-based; conditions: no significant effect on viability
Syk mRNA = test: RT-PCR of Syk mRNA in HS-24 cells after siRNA treatment; format: cell-based; conditions: 48 h treatment
Protocol: (§1) FIGS. 5A and 5B. (FIG. 5A) HS-24 cells, following siRNA treatment, were lysed and equal amounts of total protein in HS-24 cell lysates were resolved by 10% SDS gel electrophoresis, and analyzed by Western blot using monoclonal antibody to Syk or actin. Lane 1—no treatment, lane 2—siRNA-1 (control) 24 h treatment, lane 3—siRNA-1 48 h treatment, lane 4—siRNA-2 24 h treatment, lane 5—siRNA-2 48 h treatment. (FIG. 5B) RNA was isolated and RT-PCR was performed for Syk and β-actin. Lane 1—no treatment, lane 2—SiRNA-1 (control) 48 h treatment, lane 3—siRNA-2 48 h treatment.
(§2) More specifically, HS-24 cells were transiently transfected with siRNA-2 or siRNA-1 (control). Cell surface expression of ICAM-1, as well as release of IL-6, were then examined.

Syk = test: Western blot of Syk protein expression in HS-24 cells after siRNA treatment; format: cell-based; conditions: 48 hr treatment
Protocol: as §1
HS-24 cells (2×10^5) were pre-treated with 3 μl of siRNA-1 (control)
(§3) or Syk antisense, with Lipofectamine 2000 in a 12-well plate for 24 or 48 hr, and stimulated by 10 ng/ml of TNF overnight. Read-outs: IL-6 in culture supernatant (ELISA) and cell surface expression of ICAM-1 (Flow cytometry). As shown by Western blot analysis ([…]), siRNA-2 caused a decrease in Syk protein expression following 48 hr of treatment.
as §2

[1] = test system: ICAM-1 (CD54) expression in HS-24 cells; test: Cell surface expression of ICAM-1 in HS-24 cells (flow cytometry); format: cell-based; conditions: for TNF-induced ICAM-1 expression: siRNA 48 h, TNF 10 ng/ml overnight
Protocol: (§4) FIGS. 6A and 6B. HS-24 cells plated on either polylysine coated plates (non stimulated, resting) or fibronectin coated plates (stimulated) were treated with siRNA-2, or siRNA-1 (control), or piceatannol. Cells were treated with 10 ng/ml of TNF during overnight culture. (FIG. 6A) Following siRNA (48 h) or piceatannol (16 h) treatment, cells were removed, immunostained with anti-CD54 (ICAM-1) and analysed by flow cytometry. (FIG. 6B) Cell culture supernatants were analysed for IL-6 release using an IL-6 ELISA kit. *P<0.05, **P<0.005 as compared to untreated cells (e.g., untreated with siRNA) stimulated with TNF. Results are representative of three to five independent experiments.
as §3

[2] = test system: IL-6 release by HS-24 cells; test: IL-6 release of HS-24 cells into culture supernatant (ELISA); format: cell-based
Protocol: as §4, §3

Syk kinase = test: Western blot densitometry of Syk kinase protein in RBL-2H3 cells transfected with siRNA; format: cell-based, rat; conditions: for Syk (densitometry quantification of Syk kinase expression) / Syk Corr (Syk densitometry units corrected for % actin expression in each lane): 48 hours after transfection; for Syk (densitometry quantification of Syk kinase expression): Western blot; for Syk Corr (Syk densitometry units corrected for % actin expression in each lane): normalized to actin; for % Syk Inhibition: compared to transfection control
Protocol: Rat basophilic cells (RBL-2H3) were grown in EMEM supplemented with 17% FBS, 100 U penicillin, 100 μg/ml streptomycin, and 4 mM glutamine at 37° C. in 5% CO2.
SIRNA was introduced into RBL-2H3 cells and into monocytes by transfection. For the transfections, 5×10^4 RBL-2H3 cells or 1×10^5 monocytes were seeded into each well of a 24-well plate. Twenty-four hours later, the complete medium was replaced with 400 μl fresh medium lacking serum and antibiotic and siRNA/Lipofectamine 2000 complex was added to each well. For the RBL cells, the siRNA/Lipofectamine 2000 complex was formed by adding 3 μl of siRNA duplex (20 μM) and 3 μl of Lipofectamine 2000 to 100 μl Opti-mem without serum or antibiotic according to the manufacturer's protocol. For monocytes, the siRNA/Lipofectamine 2000 complex was formed by adding 3 μl of siRNA duplex (20 μM) and 1 μl of Lipofectamine 2000 to 100 μl Opti-mem without serum or antibiotic. Cells were incubated at 37° C. for 48 hours before examination of kinase protein expression by Western blotting
Lysates were prepared by boiling cells in Laemmli sample buffer (2% SDS, 10% glycerol, 100 mM DTT, and 60 mM Tris (pH 6.8) for 5 minutes. Proteins in lysates were separated by SDS-PAGE (10% polyacrylamide) and transferred to a nitrocellulose membrane in […] (25 mM Tris, 190 mM glycine, and 20% methanol). The nitrocellulose membrane was incubated overnight at 4° C. with 1 μg/ml rabbit anti-murine Syk kinsae polyclonal Ab before incubation with goat anti-rabbit HRP (1.5 h at room temperature). Protein bands on the membrane were visualized with chemiluminescence reagent according to the manufacturer's protocol. After detection of Syk kinase protein, the anti-Syk kinase Ab was removed by incubating the membrane in a stripping buffer containing 100 mM 2-ME, 2% SDS, and 62.5 mM Tris-HCL (pH 6.7) for 30 minutes at 50° C. with occasional agitation. The membrane was then reprobed with anti-actin Ab and bands on the membrane were visualized with chemiluminescence reagent. Protein levels of Syk kinase were quantified by densitometry (Personal Densitometer, Molecular Dynamics).

Compound | viability (trypan blue dye exclusion) (HS-24 cells) | Syk mRNA expression (Syk mRNA) | Syk protein expression (Syk) | TNF-induced ICAM-1 expression (summary of FIG. 6A) ([1]; HS-24 cells) | constitutive ICAM-1 expression ([1]; HS-24 cells without TNF stimulation) | TNF-induced ICAM-1 expression ([1]; fibronectin-plated HS-24 cells) | TNF-induced ICAM-1 expression ([1]; poly-L-lysine-plated HS-24 cells) | IL-6 release (summary of FIG. 6B) ([2]; HS-24 cells, TNF-induced) | down-regulation of IL-6 release ([2]; TNF-stimulated HS-24 cells, poly-L-lysine and fibronectin culture, significant in fibronectin-adherent culture (P<0.05)) | Syk (densitometry quantification of Syk kinase expression) (Syk kinase) | Syk Corr (Syk densitometry units corrected for % actin expression in each lane) (Syk kinase) | % Syk Inhibition (Syk kinase)
Oc1cc(O)cc(/C=C/c2ccc(O)c(O)c2)c1 [piceatannol] | > 96% | – | – | – | – | – | – | – | – | – | – | –
siRNA-2: Syk kinase siRNA duplex; sense 5′-ccucaucagggaauaucug UU 3′ (SEQ ID NO: 25), antisense 3′-UU ggaguagucccuuauagac 5′ (SEQ ID NO: 26) (sense CCUCAUCAGGGAAUAUCUGUU; antisense CAGAUAUUCCCUGAUGAGGTT; chemistry not fully specified) | – | significantly suppressed | decrease; also recorded: significantly suppressed | down-regulates | not affected | down-regulated | no significant effect | down-regulates | 55–58% | 627 densitometry units | 997 densitometry units | 51%
siRNA-1: Syk kinase siRNA duplex; sense 5′ gaagcccuucaaccggccc UU 3′ (SEQ ID NO: 23), antisense 3′-UU cuucgggaaguuggccggg 5′ (SEQ ID NO: 24) (sense GAAGCCCUUCAACCGGCCCUU; antisense GGGCCGGUUGAAGGGCUUCTT; chemistry not given here) | – | not | not | – | – | – | – | – | – | 953 densitometry units | 1114 densitometry units | 45%
